What was measured:
[1] = target: Lysine-specific histone demethylase 1A (Homo sapiens, UniProt O60341); experiment: Inhibition of recombinant human LSD1 expressed in Escherichia coli using biotinylated H3K4me as substrate by TR-FRET assay
[2] = tested on: THP-1; experiment: Anticlonogenic activity against human THP1 cells assessed as inhibition of colony formation at 50 nM measured after 13 days relative to control; type: functional; conditions: THP-1, 312 h
[3] = tested on: THP-1; experiment: Anticlonogenic activity against human THP1 cells assessed as inhibition of colony formation at 500 nM measured after 13 days relative to control; type: functional; conditions: THP-1, 312 h
[4] = Cmax in CD-1 mouse at 5 mg/kg, iv administered as single dose; type: ADME, organism-based; parameters: dose 5 mg/kg, route intravenous; conditions: in vivo
[5] = AUC (0 to infinity) in CD-1 mouse at 5 mg/kg, iv administered as single dose; type: ADME, organism-based; parameters: dose 5 mg/kg, time infinity, route intravenous; conditions: in vivo
[6] = Clearance in CD-1 mouse at 5 mg/kg, iv administered as single dose; type: ADME, organism-based; conditions: in vivo
[7] = Volume of distribution at steady state in CD-1 mouse at 5 mg/kg, iv administered as single dose; type: ADME, organism-based; conditions: in vivo, read-out: Vdss
[8] = Half life in CD-1 mouse at 5 mg/kg, iv administered as single dose; type: ADME, organism-based; conditions: in vivo
[9] = Cmax in CD-1 mouse at 15 mg/kg, po administered as single dose; type: ADME, organism-based; parameters: dose 15 mg/kg, route oral; conditions: in vivo
[10] = AUC (0 to infinity) in CD-1 mouse at 15 mg/kg, po administered as single dose; type: ADME, organism-based; parameters: dose 15 mg/kg, time infinity, route oral; conditions: in vivo
[11] = Tmax in CD-1 mouse at 15 mg/kg, po administered as single dose; type: ADME, organism-based; conditions: in vivo
[12] = Oral bioavailability in CD-1 mouse at 15 mg/kg administered as single dose; type: ADME, organism-based; conditions: in vivo
[13] = Antitumor activity against mouse APL blast injected in non-irradiated mouse assessed as increase in mouse survival at 15 mg/kg, po administered 5 days per week for 2 weeks starting after 10 days post-injection by Kaplan-Meier plot analysis relative to control; type: functional
[14] = Antitumor activity against mouse APL blast injected in non-irradiated mouse assessed as increase in mouse survival at 30 mg/kg, po administered 5 days per week for 2 weeks starting after 10 days post-injection by Kaplan-Meier plot analysis relative to control; type: functional
[15] = tested on: Mus musculus; experiment: Antitumor activity against mouse APL blast injected in non-irradiated po dosed mouse assessed as increase in mouse survival administered 5 days per week for 2 weeks starting after 10 days post-injection by Kaplan-Meier plot analysis relative to control; type: functional, organism-based
[16] = Toxicity in non-irradiated mouse injected with APL blast cells assessed as effect on body weight at 15 and 30 mg/kg, po administered 5 days per week for 2 weeks starting after 10 days post-injection; type: organism-based; conditions: in vivo
[17] = Toxicity in non-irradiated mouse injected with APL blast cells assessed as effect on body weight at 60 mg/kg, po administered 5 days per week for 2 weeks starting after 10 days post-injection measured after 1st week of treatment; type: organism-based; conditions: in vivo
[18] = Antitumor activity against human MLL-AF9 xenografted in sub-lethal irradiated C57BL6JCRL mouse assessed as increase in mouse survival at 15 mg/kg, po administered 5 days per week for 2 weeks starting after 10 days post-injection by Kaplan-Meier plot analysis relative to control; type: functional
[19] = Antitumor activity against human MLL-AF9 xenografted in sub-lethal irradiated C57BL6JCRL mouse assessed as increase in mouse survival at 30 mg/kg, po administered 5 days per week for 2 weeks starting after 10 days post-injection by Kaplan-Meier plot analysis relative to control; type: functional
[20] = Toxicity in sub-lethal irradiated C57BL6JCRL mouse xenografted with human MLL-AF9 cells assessed as effect on body weight at 15 to 30 mg/kg, po administered 5 days per week for 2 weeks starting after 10 days post-injection; type: organism-based; conditions: in vivo

| SMILES | IC50 [1] [µM] | inhibition at 0.05 µM [2] [%] | inhibition at 0.5 µM [3] [%] | other results |
| --- | --- | --- | --- | --- |
| Cn1c(-c2nc(C3CCC3)cn2CCCc2ccc(OC3CCNCC3)cc2)cc2sccc21 | – | 38.8 | 72.3 | Cmax [4]: 2540 nM; AUC(0-inf) [5]: 4.2 µM·h; clearance [6]: 37.5 mL/min/kg; Vd [7]: 10.2 L/kg; half-life [8]: 6 h; Cmax [9]: 320 nM; AUC(0-inf) [10]: 2.03 µM·h; Tmax [11]: 0.417 h; bioavailability [12]: 17%; Activity [13]: 20%; Activity [14]: 55%; Activity [15]: Dose-dependent effect; Activity [16]: Non-Toxic; Activity [17]: Toxic; Activity [18]: 29%; Activity [19]: 70%; Activity [20]: Non-Toxic |
| Cn1c(-c2nc(C3CCC3)cn2CCOc2ccc(OC3CCNCC3)cc2)cc2sccc21 | – | 33 | 73.3 | – |
| Cn1c(-c2nc(C3CCC3)cn2CCCc2ccc(OC3CCCNCC3)cc2)cc2sccc21 (stereo not given) | – | 40.9 | 74.2 | – |
| CCCc1cn(CCCc2ccc(OC3CCCNCC3)cc2)c(-c2cc3sccc3n2C)n1 (stereo not given) | – | 46.6 | 64.2 | – |
| CCc1cn(CCOc2ccc(OC3CCNCC3)cc2)c(-c2cc3sccc3n2C)n1 | – | 27.6 | 72.3 | – |
| CCc1cn(CCCc2ccc(OC3CCNCC3)cc2)c(-c2cc3sccc3n2C)n1 | – | 33.3 | 61.4 | – |

Continued, in another order:

| IC50 [1] [µM] | SMILES | inhibition at 0.05 µM [2] [%] | inhibition at 0.5 µM [3] [%] | other results |
| --- | --- | --- | --- | --- |
| > 100 | Cn1c(-c2nnc(-c3ccccc3)o2)cc2sccc21 | – | – | – |
| > 100 | Cn1c(-c2nc3ccccc3[nH]2)cc2sccc21 | – | – | – |
| > 100 | Cn1c(-c2nnc(-c3ccccc3)[nH]2)cc2sccc21 | – | – | – |
| > 100 | Cn1c(-c2ncc(-c3ccccc3)o2)cc2sccc21 | – | – | – |
| > 100 | Cn1c(NC(=O)c2ccccc2)cc2sccc21 | – | – | – |
| > 100 | Cn1c(C(=O)Cc2ccccc2)cc2sccc21 | – | – | – |

Reference: ChEMBL document CHEMBL4613290, “Discovery of Reversible Inhibitors of KDM1A Efficacious in Acute Myeloid Leukemia Models” (ACS Med Chem Lett, 2020)
